Measured values from ChEMBL document CHEMBL1158459, “Discovery of a peroxisome proliferator activated receptor gamma (PPARgamma) modulator with balanced PPARalpha activity for the treatment of type 2 diabetes and dyslipidemia” (J Med Chem, 2009).
pEC50, pIC50: −log10 of the molar value. Activity calls are given as the source filed them. The calls are words filed in the database; no cut-off is given here.

Legend:
Rattus norvegicus [1] = assay: Antidiabetic activity in Zucker fa/fa rat assessed as decrease in free fatty acid levels at 0.03 mg/kg, po once daily for 7 days; format: functional, organism-based; set-up: dose 0.03 mg/kg
[2] = AUC in Beagle dog at 1 mg/kg, po once daily for 14 days; format: ADME, organism-based, Canis lupus familiaris; set-up: dose 1 mg/kg, route oral; conditions: plasma
[3] = biological target: Oxysterols receptor LXR-alpha (Homo sapiens) (UniProt Q13133); assay: Activity at LXRalpha receptor up to 10 uM by transactivation assay
Rattus norvegicus [4] = assay: Antidiabetic activity in Zucker fa/fa rat assessed as decrease in triglyceride levels at 0.3 mg/kg, po once daily for 7 days; format: functional, organism-based; set-up: dose 0.3 mg/kg
[5] = biological target: Nuclear receptor subfamily 1 group I member 2 (Homo sapiens, UniProt O75469); assay: Binding affinity to PXR up to 10 uM
[6] = biological target: T1, Peroxisome proliferator-activated receptor alpha (Homo sapiens, UniProt Q07869); format: functional, cell-based, COS-1
T1 sequence (Q07869 whole entry): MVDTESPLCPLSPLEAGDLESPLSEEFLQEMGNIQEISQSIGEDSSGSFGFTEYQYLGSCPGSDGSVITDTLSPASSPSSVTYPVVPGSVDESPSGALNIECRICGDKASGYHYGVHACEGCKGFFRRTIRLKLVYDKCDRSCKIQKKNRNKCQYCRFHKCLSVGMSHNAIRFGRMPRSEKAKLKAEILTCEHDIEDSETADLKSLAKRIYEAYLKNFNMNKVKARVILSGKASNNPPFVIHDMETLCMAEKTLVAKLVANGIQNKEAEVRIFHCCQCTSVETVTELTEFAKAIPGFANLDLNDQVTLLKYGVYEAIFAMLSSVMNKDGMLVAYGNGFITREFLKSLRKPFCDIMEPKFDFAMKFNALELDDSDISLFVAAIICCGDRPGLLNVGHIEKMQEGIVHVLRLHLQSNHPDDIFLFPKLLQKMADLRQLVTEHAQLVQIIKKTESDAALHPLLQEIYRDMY
Description: Agonist activity at human PPARalpha receptor expressed in african green monkey COS1 cells co-transfected with fused yeast Gal4-DBD by transactivation assay

[7] = Agonist activity at hamster PPARalpha receptor; format: functional, Cricetinae
Syrian golden hamster [8] = assay: Antidiabetic activity in Syrian golden hamster assessed as reduction in triglyceride level at 1 mg/kg, po once daily for 9 days relative to control; format: functional, Mesocricetus auratus; set-up: scale not given: the % may be the effect or the level left
[9] = AUC in C57BLKS/J-m+/+Leprdb db/db mouse at 3 mg/kg, po once daily for 11 days; format: ADME, organism-based; set-up: dose 3 mg/kg, route oral; conditions: plasma
Mus musculus [10] = assay: Antidiabetic activity in ob/ob mouse assessed as reduction in plasma glucose levels at 3 mg/kg, po once daily for 5 days relative to control; format: functional; set-up: scale not given: the % may be the effect or the level left
Rattus norvegicus [11] = assay: Antidiabetic activity in Zucker fa/fa rat assessed as decrease in free fatty acid levels at 10 mg/kg, po once daily for 7 days; format: functional, organism-based; set-up: dose 10 mg/kg
Rattus norvegicus [12] = assay: Antidiabetic activity in Zucker fa/fa rat assessed as decrease in triglyceride levels at 3 mg/kg, po once daily for 7 days; format: functional, organism-based; set-up: dose 3 mg/kg
Syrian golden hamster [13] = assay: Antidiabetic activity in Syrian golden hamster assessed as reduction in cholesterol level at 0.3 mg/kg, po once daily for 9 days relative to control; format: functional, Mesocricetus auratus; set-up: scale not given: the % may be the effect or the level left
Mus musculus [14] = assay: Antidiabetic activity in C57BLKS/J-m+/+Leprdb db/db mouse assessed as reduction in plasma triglyceride levels at 3 mg/kg, po once daily for 11 days relative to control; format: functional; set-up: scale not given: the % may be the effect or the level left
[15] = Cmax in Syrian golden hamster at 3 mg/kg, po once daily for 9 days; format: ADME, organism-based, Mesocricetus auratus; set-up: dose 3 mg/kg, route oral; conditions: in vivo
Mus musculus [16] = assay: Antidiabetic activity in C57BLKS/J-m+/+Leprdb db/db mouse assessed as reduction in plasma triglyceride levels at 10 mg/kg, po once daily for 11 days relative to control; format: functional; set-up: scale not given: the % may be the effect or the level left
Mus musculus [17] = assay: Antidiabetic activity in high fat diet-fed streptozotocin-treated mouse assessed as reduction in plasma glucose levels at 30 mg/kg, po once daily for 12 days relative to control; format: functional; set-up: scale not given: the % may be the effect or the level left
Rattus norvegicus [18] = assay: Antidiabetic activity in Zucker fa/fa rat assessed as decrease in triglyceride levels at 100 mg/kg, po once daily for 7 days; format: functional, organism-based; set-up: dose 100 mg/kg
Rattus norvegicus [19] = assay: Toxicity in Sprague-Dawley rat assessed as increase in heart weight at 60 mg/kg, po once daily for 14 days; format: organism-based; set-up: dose 60 mg/kg, route oral; conditions: in vivo, 336 h
[20] = AUC in Beagle dog at 3 mg/kg, po once daily for 14 days; format: ADME, organism-based, Canis lupus familiaris; set-up: dose 3 mg/kg, route oral; conditions: plasma
Mus musculus [21] = assay: Antidiabetic activity in ob/ob mouse assessed as insulin correction at 10 mg/kg, po once daily for 5 days relative to control; format: functional
Cytochrome P450 1A2 = Cytochrome P450 1A2 (Homo sapiens, UniProt P05177); assay: Inhibition of CYP1A2; format: ADME
[22] = Cmax in Syrian golden hamster at 1 mg/kg, po once daily for 9 days; format: ADME, organism-based, Mesocricetus auratus; set-up: dose 1 mg/kg, route oral; conditions: in vivo
[23] = biological target: T2, Peroxisome proliferator-activated receptor gamma (Homo sapiens, UniProt P37231)
T2 sequence (P37231 whole entry): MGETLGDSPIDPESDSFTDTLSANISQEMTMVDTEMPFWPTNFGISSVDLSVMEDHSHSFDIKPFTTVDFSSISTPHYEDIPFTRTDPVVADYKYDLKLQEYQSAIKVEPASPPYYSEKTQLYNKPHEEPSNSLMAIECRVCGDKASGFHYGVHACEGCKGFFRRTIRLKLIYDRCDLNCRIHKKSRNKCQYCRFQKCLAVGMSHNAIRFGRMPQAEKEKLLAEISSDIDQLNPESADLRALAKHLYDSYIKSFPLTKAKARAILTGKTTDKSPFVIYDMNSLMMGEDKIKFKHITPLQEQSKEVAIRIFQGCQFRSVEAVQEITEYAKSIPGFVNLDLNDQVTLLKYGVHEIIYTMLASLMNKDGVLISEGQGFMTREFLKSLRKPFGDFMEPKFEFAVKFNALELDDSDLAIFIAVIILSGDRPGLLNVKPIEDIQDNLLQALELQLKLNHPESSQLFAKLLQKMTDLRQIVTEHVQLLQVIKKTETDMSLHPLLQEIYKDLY
Description: Inhibition of human PPARgamma receptor by scintillation proximity assay

[24] = biological target: Estrogen receptor (Homo sapiens) (UniProt P03372); assay: Activity at ERalpha receptor up to 10 uM by transactivation assay
Mus musculus [25] = assay: Antidiabetic activity in ob/ob mouse assessed as reduction in plasma glucose levels at 10 mg/kg, po once daily for 5 days relative to control; format: functional; set-up: scale not given: the % may be the effect or the level left
Rattus norvegicus [26] = assay: Antidiabetic activity in po dosed Zucker fa/fa rat assessed as insulin lowering activity treated once daily for 7 days; format: functional

Cytochrome P450 1A2, sequence (P05177 whole entry): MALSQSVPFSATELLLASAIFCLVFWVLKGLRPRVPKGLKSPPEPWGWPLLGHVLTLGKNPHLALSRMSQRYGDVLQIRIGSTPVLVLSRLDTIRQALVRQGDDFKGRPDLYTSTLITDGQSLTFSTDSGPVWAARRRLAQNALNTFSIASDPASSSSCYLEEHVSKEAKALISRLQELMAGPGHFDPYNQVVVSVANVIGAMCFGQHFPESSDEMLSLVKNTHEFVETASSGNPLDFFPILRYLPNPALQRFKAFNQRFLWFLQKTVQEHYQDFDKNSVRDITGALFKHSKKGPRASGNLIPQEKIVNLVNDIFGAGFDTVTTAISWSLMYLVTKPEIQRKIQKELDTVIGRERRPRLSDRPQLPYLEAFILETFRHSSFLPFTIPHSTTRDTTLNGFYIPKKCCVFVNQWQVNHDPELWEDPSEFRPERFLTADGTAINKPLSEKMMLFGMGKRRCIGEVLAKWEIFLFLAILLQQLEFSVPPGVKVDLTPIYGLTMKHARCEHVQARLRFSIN
Nuclear receptor subfamily 1 group I member 2, sequence (O75469 whole entry): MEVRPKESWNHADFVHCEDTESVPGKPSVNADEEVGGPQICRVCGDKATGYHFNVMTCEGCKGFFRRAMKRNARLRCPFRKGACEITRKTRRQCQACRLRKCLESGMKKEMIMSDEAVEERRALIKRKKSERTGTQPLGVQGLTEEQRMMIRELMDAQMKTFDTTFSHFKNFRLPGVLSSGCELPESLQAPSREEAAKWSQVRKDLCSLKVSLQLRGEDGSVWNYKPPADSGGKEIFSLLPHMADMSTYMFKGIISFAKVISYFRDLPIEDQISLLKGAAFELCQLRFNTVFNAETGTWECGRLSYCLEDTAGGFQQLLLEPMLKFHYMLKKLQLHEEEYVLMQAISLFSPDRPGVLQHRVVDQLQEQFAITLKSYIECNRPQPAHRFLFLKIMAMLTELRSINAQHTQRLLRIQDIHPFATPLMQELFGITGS
Oxysterols receptor LXR-alpha (Homo sapiens), sequence (Q13133 whole entry): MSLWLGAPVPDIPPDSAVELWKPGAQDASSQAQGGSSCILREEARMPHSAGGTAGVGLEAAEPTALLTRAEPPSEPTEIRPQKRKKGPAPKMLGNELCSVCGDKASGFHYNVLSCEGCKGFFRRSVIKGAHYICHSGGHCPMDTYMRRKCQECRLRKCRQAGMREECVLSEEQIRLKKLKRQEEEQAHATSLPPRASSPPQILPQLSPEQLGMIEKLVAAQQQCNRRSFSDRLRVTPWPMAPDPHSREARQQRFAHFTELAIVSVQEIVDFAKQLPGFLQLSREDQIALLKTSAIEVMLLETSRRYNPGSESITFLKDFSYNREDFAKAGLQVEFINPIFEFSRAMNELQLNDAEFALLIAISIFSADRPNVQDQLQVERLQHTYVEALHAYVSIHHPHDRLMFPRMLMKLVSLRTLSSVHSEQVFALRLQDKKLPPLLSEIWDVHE
Estrogen receptor (Homo sapiens), sequence (P03372 whole entry): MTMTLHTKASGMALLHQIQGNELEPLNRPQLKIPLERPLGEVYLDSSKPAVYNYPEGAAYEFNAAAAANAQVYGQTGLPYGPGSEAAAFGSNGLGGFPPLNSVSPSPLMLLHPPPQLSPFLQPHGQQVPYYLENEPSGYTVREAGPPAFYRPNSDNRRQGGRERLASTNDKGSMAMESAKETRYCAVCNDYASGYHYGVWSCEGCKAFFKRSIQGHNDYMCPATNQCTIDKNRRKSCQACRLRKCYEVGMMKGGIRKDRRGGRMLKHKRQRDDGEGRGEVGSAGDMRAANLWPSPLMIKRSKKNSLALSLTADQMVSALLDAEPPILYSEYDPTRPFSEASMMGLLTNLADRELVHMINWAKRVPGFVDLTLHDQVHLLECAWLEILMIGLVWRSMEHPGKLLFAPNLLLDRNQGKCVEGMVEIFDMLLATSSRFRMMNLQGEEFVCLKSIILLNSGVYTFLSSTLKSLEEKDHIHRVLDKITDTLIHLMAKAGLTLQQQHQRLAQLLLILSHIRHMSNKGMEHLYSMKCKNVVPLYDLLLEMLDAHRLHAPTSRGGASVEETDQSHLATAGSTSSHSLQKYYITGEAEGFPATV

For CC[C@@H](Oc1cccc(Cn2c(C)c(C(=O)c3ccc(Cl)cc3)c3ccc(OC(F)(F)F)cc32)c1)C(=O)O, the Activity (Rattus norvegicus [1]) was “Active”, the AUC at 336 h [2] was 5.41 µM·h and the Activity [3] was “inactive”. The Activity (Rattus norvegicus [4]) was “Active”, the Activity [5] was “Not Active” and the pEC50 [6] was 6.64. It also gave a pEC50 [7] of 9.34, an Activity (Syrian golden hamster [8]) of 30.7% and an AUC at 264 h [9] of 6.4 µM·h. For the same compound, the Activity (Mus musculus [10]) was 21%, the Activity (Rattus norvegicus [11]) was “Active” and the Activity (Rattus norvegicus [12]) was “Active”. The Activity (Syrian golden hamster [13]) was 21.9%, the Activity (Mus musculus [14]) was 85% and the Cmax [15] was 600 nM. For the same compound, the Activity (Mus musculus [16]) was 84%, the Activity (Mus musculus [17]) was 103% and the Activity (Rattus norvegicus [18]) was “Active”. It also gave an Activity (Rattus norvegicus [19]) of 1%, an AUC at 336 h [20] of 21.4 µM·h and an Activity (Mus musculus [21]) of 89%. For the same compound, the pIC50 (Cytochrome P450 1A2) was 4.40, the Cmax [22] was 70 nM and the pIC50 [23] was 8.05. For the same compound, the Activity [24] was “inactive”, the Activity (Mus musculus [25]) was 34% and the ED50 (Rattus norvegicus [26]) was 10 µM·h.
